Assays:
[1] = biological target: T1, CAD de peuplier (Populus deltoides, UniProt P31657); assay: In vitro inhibition of isolated poplar cinnamyl alcohol dehydrogenase (CAD) at 2 mM; type: biochemical; conditions: 2mM, CAD de peuplier; for inhibition at 2000 µM: read-out: Inhibition à 2mM %
T1 construct: CAD de peuplier isolée selon la méthode deSARNI et al,1984; from tissue; host or cells: poplar plant material
T1 sequence (P31657 1-357): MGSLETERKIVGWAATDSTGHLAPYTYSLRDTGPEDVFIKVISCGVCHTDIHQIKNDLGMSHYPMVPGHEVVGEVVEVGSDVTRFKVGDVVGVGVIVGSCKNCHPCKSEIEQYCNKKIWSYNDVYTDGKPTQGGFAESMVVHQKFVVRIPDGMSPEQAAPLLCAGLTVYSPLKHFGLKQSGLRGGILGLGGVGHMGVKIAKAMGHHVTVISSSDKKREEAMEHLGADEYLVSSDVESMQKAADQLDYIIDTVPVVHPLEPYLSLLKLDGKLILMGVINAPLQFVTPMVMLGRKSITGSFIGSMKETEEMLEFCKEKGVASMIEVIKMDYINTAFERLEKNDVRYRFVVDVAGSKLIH
Text: Après réacidification à pH2 par de l'acide chlorhydrique 3N et centrifugation, le surnageant contenant les acides cinnamiques est séparé du résidu. Les "poudres alcool-benzène" ainsi hydrolysées sont lavées par de l'eau distillée jusqu'à pH neutre et séchées, sous vide dans un dessiccateur en présence de silica.-gel. Les teneurs en lignines sont estimées par la méthode gravimétriques de KLASON (Tappi Standard method Tl2m) modifiée par EFFLAND. Tappi, 60, p 143-144, 1977. On rapporte dans le tableau 1) suivant les résultats obtenus concernant l'effet mesuré in vitro d'inhibiteurs selon l'invention à une concentration de 2mM vis-à-vis de la CAD de peuplier isolée selon la méthode deSARNI et al,1984,EUROP JOURNAL OF BIOCHEMISTRY, 18(1),139, 259-265 On indique également dans ce tableau les résultats obtenus avec des composés portant des substitutions différentes de ceux mis enoe uvre dans l'invention. Les chiffres indiqués entre parenthèses a côté des formules correspondent aux composés identifiés dans les exemples de préparation 2 et 3.
On rapporte dans le tableau 2 suivant les pourcentages d'inhibition de la CAD obtenus en utilisant, à raison de 2 mM, différents composés capables de complexer Zn.

[2] = biological target: T2, CAD (Populus deltoides, UniProt P31657); assay: Specificity of the inhibitors among the enzymes tested; type: biochemical
T2 sequence (P31657 1-357): T1 sequence (P31657 1-357)

[3] = system: tiges de peuplier; assay: Incorporation of cinnamic acid (14C3) into lignins in cut poplar stems; type: in vivo; conditions: 96 heures de métabolisation, read-out: inhibition de l'incorporation de l'acide cinnamique dans le polymère
Text: Afin de vérifier chez des tiges de peuplier l'action de l'OHPAS et du NH2PAS, on réalise des incorporations d'acide cinnamique (5 yCi) à des rameaux comportant 12 entrenoeuds selon la technique de la tige sectionnée décrite par BOUDET,dans C.R. Acad. Sci.Paris, p. 1966-1968, 269, 1969. La radioactivité des lignines est mesurée après 96 heures de métabolisation.
Lorsque la métabolisation est effectuée en présence du OHPAS et du NH2PAS, on observe une diminution de la radioactivité incorporée dans les lignines. Ainsi, l'OHPAS, à la concentration de 160 µM inhibe de 46% l'incorporation de l'acide cinnamique dans le polymère. Bien que les concentrations en inhibiteurs soient plus faibles, l'effet des inhibiteurs apparaîtsemanifester de façon plus nette-pour une métabolisation de plus longue durée.

[4] = biological target: T1, CAD de peuplier; assay: In vitro inhibition of isolated poplar cinnamyl alcohol dehydrogenase (CAD) at 2 mM; type: biochemical; conditions: mode of action study
[5] = system: CCR; assay: Inhibition of cinnamoyl:CoA reductase (CCR); type: biochemical

SMILES | inhibition at 2000 µM [1] | spécificité en regard des enzymes testées [2] | inhibition at 160 µM [3] | réversibilité de l'inhibition de la CAD [4] | Inhibition à 2mM % ([1]; 2000 µM) | inhibition de la CCR [5]
CC(C)(C)OC(=O)C[S+]([O-])Nc1ccccc1O (centres unmarked) [composé 2, N-(o -hydroxy phényl)sulfinamoyl acétate de tertiobutyle] | 90% | spécificité stricte vis-à-vis de la CAD | 46% | faiblement réversible |  | 
CC(C)(C)OC(=O)C[S+]([O-])Nc1ccccc1N (centres unmarked) [composé 5, N-(o-Amino phényl)Sulfinamoyl Acétate de tertiobutyle] | 90% |  |  | faiblement réversible | 80% | inhibe également la CCR
